Target: T1, Gamma-aminobutyric acid receptor subunit alpha-5 (Homo sapiens, UniProt P31644)
T1 sequence (P31644 whole entry): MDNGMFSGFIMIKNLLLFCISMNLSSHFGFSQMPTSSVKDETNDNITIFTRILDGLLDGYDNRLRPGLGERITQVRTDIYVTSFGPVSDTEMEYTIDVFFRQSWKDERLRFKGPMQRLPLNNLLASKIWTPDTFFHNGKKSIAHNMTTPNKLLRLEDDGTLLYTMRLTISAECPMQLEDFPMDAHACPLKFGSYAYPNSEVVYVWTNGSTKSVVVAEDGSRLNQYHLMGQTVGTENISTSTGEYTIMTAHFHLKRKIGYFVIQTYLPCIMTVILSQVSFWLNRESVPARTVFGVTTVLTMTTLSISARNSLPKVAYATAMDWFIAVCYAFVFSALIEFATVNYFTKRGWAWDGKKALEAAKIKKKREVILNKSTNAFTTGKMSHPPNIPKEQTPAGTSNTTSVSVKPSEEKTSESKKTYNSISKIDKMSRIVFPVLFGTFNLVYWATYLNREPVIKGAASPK
Experiment: Binding Assay
Protocol: Receptor binding assays were performed in 96-well format in deep-well plates. For each 96-well plate one ampulle of membrane homogenate was thawed and diluted in binding buffer (50 mM Tris pH=7.4, 100 mM KCl) and 200 μL was dispensed into each well. Radioligand [3H]Ro151788 (Perkin Elmer: NET757250UC) was prepared in binding buffer and added to each well in 50 μL volume to give final concentration of 0.5 nM. Test compounds in suitable concentration(s) were added in additional 50 μL. The final assay volume was 300 μL. Incubation was carried out for 60 minutes at 4° C. For non-specific binding 10 μM unlabeled diazepam was used. After incubation samples were filtered over UniFilter GF/B™ using Filtermate Harvester (Perkin Elmer) and washed with 5×1 mL binding buffer. The plate was dried at 40° C. for an hour and 40 μL Microscint (Perkin Elmer) scintillation cocktail was added to each well. The plate was read in Microbeta (Perkin Elmer).

Cc1nnn(-c2ccc(F)cc2)c1COc1ccc2c(n1)CN(C(=O)C(F)(F)F)C2 [US12370182, Example 51]
Ki: 31 nM

Cc1onc(-c2ccc(F)cc2)c1COc1ccc2c(n1)CCN(C(=O)N1CCCCC1)C2 [US12370182, Example 85]
Ki: 36 nM
